Measured values published in patent EP0933027A1, “Methods and compositions for protecting animals and humans against attack and infestation by arthropod and helminth parasites” (American Cyanamid Company, priority 1998, dated 1999).
Where two headings read alike, the source gives them in different places.

What was measured:
[1] = test system: ovine Trichstrongylus colubriformis larvae; experiment: Systemic activity against helminth larvae in infected Mongolian gerbils (medicated diet); type: in vivo; settings: 500 ppm in feed; medicated diet for 3 days from ten days post infection; nematode burdens treated versus non-treated
Procedure: This test is designed to evaluate the systemic activity of test compounds against helminth parasites. Mongolian gerbils are infected orally with ovine Trichstrongylus colubrifomis larvae. Ten days post infection, the gerbils are treated with test compounds by diet incorporation. After feeding on the medicated diet for 3 days, the gerbils are sacrificed and gastrointestinal nematode populations are counted. Efficacy is determined by statistical analyses of treated versus non-treated nematode burdens.

Bovicola spp. = experiment: Coated vial test against adult biting louse; settings: for mortality at 2 µg/cm2: dose 2.0 µg/cm^2; for mortality at 6.1 µg/cm2: dose 6.1 µg/cm^2
Procedure: This test is designed to evaluate the activity of test compounds against the biting louse. Test compounds are dissolved in 100% acetone to 300, 100 and 10 ppm. 100 µL of each of these dilutions is added to the bottom of a 20 mL glass scintillation vial with a pipettor. The vial is allowed to dry under a fume hood for 15 minutes. The bottom of the vial measures 4.909 cm^2. The amount of test compound applied by each dilution equals 6.1, 2.0 and 0.2 µg/cm^2, respectively. Included in all tests are two to three replications of untreated vials. Lice are collected from the host animal and are used within 4 hours. The lice are counted into the scintillation vials with a slightly damp paintbrush. Five adult lice are placed in each vial. These tests are done in replicates of two or three so that there are 10 to 15 lice per rate/compound. Mortality readings are taken at 2 and 4 hours after placing the lice in the vials. To read the test, the vial is placed under a magnifying glass. […] Percent mortality is then calculated for each treatment.

Dermacentor variabilis = experiment: Contact activity against larval American dog tick (coated vial)
Procedure: This test is designed to evaluate the contact activity of test compounds against the American dog tick. Test compounds are dissolved in 100% acetone to 1000, 300, 100, 10, 1 and 0.1 ppm. 100 µL of each of these dilutions is added to the bottom of a 20 mL glass scintillation vial with a pipettor. The vial is allowed to dry under a fume hood for 15 minutes. The vial is then turned in its side, and 250 µL of each dilution is applied to the sides of the vial. The vial is placed on a rolling machine and allowed to roll under the hood, coating the sides of the vial, until the acetone completely evaporates. The bottom of the vial measures 4.909 cm^2 and the sides measure 4.5 cm high x 8.8 cm around, so that the total coated area of the scintillation vial measures 44.51 cm^2. The amount of test compound applied by each dilution equals 7.86, 2.36, 0.79, 0.079, 0.0079 and 0.00079 µg/cm^2, respectively. Unfed larval dog ticks are counted into the scintillation vials with a slightly damp paintbrush. Ten ticks are placed in each vial. These tests are done in replicates of two or three so that there are 20 to 30 ticks per rate/compound. Mortality readings are taken 4 and 24 hours after placing the ticks in the vials. To read the test, the vial is placed under a magnifying glass and tapped gently. […] Percent mortality is then calculated for each treatment.

Ctenocephalides felis = experiment: Contact activity against adult cat flea, with and without piperonyl butoxide
Procedure: This test is designed to evaluate the contact activity of test compounds against the adult cat flea. Test compounds are dissolved in 100% acetone to 300, 100, 10 and 1 ppm. 100 µL of each of these dilutions is added to the bottom of a 20 mL glass scintillation vial with a pipettor. The vial is allowed to dry under a fume hood for 15 minutes. The bottom of the vial measures 4.909 cm^2. The amount of test compound applied by each dilution equals 6.2, 2.0, 0.2 and 0.02 µg/cm^2, respectively. Newly emerged adult cat fleas are anesthetized with CO2 to immobilize, and are counted into the scintillation vials with forceps. Five fleas are placed in each vial. These tests are done in replicates of two or three so that there are 10 to 15 fleas per rate/compound. Mortality readings are taken 4 and 24 hours after placing the fleas in the vials. […] Percent mortality is then calculated for each treatment.
This test evaluates the synergistic effect of piperonyl butoxide on the formula I compounds of this invention. Piperonyl butoxide (PBO) is added in an amount of 1.5% to a 1,000 ppm solution of a test compound in acetone. Dilutions are then made with acetone to provide solutions containing 300, 100, 10 and 1 ppm of the test compound and 0.45%, 0.15%, 0.015% and 0.0015% piperonyl butoxide, respectively. Solutions containing 1,000, 300, 100, 10 and 1 ppm of the test compound alone are used as the control. The evaluations are conducted according to the procedure described in Example 1.

[2] = 2 hours, read-out: 2 Hour % Mortality
[3] = 4 hours, read-out: 4 Hour % Mortality
[4] = 4 h, read-out: 4 Hour % Mortality
[5] = 24 h, read-out: 24 Hour % Mortality

## F/C(=C\Cc1ccc(F)c(Oc2ccccc2)c1)C(c1ccc(Cl)cc1)C1CC1 (stereo not shown) [Compound 5, 1-[1-(p-Chlorophenyl)-2-fluoro-4-(4-fluoro-3-phenoxyphenyl)-2-butenyl]cyclopropane, (Z)-]
[1]
  % Efficacy: 46%
Bovicola spp.; [2]
  mortality at 2 µg/cm2: 92%
  mortality at 6.1 µg/cm2: 100%
Bovicola spp.; [3]
  mortality at 2 µg/cm2: 100%
  mortality at 6.1 µg/cm2: 100%
Dermacentor variabilis; [4]
  mortality at 0.00079 µg/cm2: 100%
  mortality at 0.0079 µg/cm2: 100%
  mortality at 0.079 µg/cm2: 100%
  mortality at 0.79 µg/cm2: 100%
  mortality at 2.36 µg/cm2: 100%
  mortality at 7.86 µg/cm2: 100%
Dermacentor variabilis; [5]
  mortality at 0.00079 µg/cm2: 100%
  mortality at 0.0079 µg/cm2: 100%
  mortality at 0.079 µg/cm2: 100%
  mortality at 0.79 µg/cm2: 100%
  mortality at 2.36 µg/cm2: 100%
  mortality at 7.86 µg/cm2: 100%
Ctenocephalides felis; 4 h, dose 0.02 µg/cm^2, 0.0 % PBO (test compound alone), 4 hours, read-out: 4 Hour % Mortality
  mortality at 0.02 µg/cm2: 0%
Ctenocephalides felis; 4 h, dose 0.02 µg/cm^2, 0.0015 % PBO in composition, 4 hours, read-out: 4 Hour % Mortality
  mortality at 0.02 µg/cm2: 0%
Ctenocephalides felis; 4 h, dose 0.2 µg/cm^2, 0.0 % PBO (test compound alone), 4 hours, read-out: 4 Hour % Mortality
  mortality at 0.2 µg/cm2: 20%
Ctenocephalides felis; 4 h, dose 0.2 µg/cm^2, 0.015 % PBO in composition, 4 hours, read-out: 4 Hour % Mortality
  mortality at 0.2 µg/cm2: 40%
Ctenocephalides felis; 4 h, dose 2.0 µg/cm^2, 0.0 % PBO (test compound alone), 4 hours, read-out: 4 Hour % Mortality
  mortality at 2 µg/cm2: 30%
Ctenocephalides felis; 4 h, dose 2.0 µg/cm^2, 0.15 % PBO in composition, 4 hours, read-out: 4 Hour % Mortality
  mortality at 2 µg/cm2: 20%
Ctenocephalides felis; 4 h, dose 6.2 µg/cm^2, 0.0 % PBO (test compound alone), 4 hours, read-out: 4 Hour % Mortality
  mortality at 6.2 µg/cm2: 30%
Ctenocephalides felis; 4 h, dose 6.2 µg/cm^2, 0.45 % PBO in composition, 4 hours, read-out: 4 Hour % Mortality
  mortality at 6.2 µg/cm2: 20%
Ctenocephalides felis; 4 h, dose 20.0 µg/cm^2, 0.0 % PBO (test compound alone), 4 hours, read-out: 4 Hour % Mortality
  mortality at 20 µg/cm2: 100%
Ctenocephalides felis; 4 h, dose 20.0 µg/cm^2, 1.50 % PBO in composition, 4 hours, read-out: 4 Hour % Mortality
  mortality at 20 µg/cm2: 100%
Ctenocephalides felis; 24 h, dose 0.02 µg/cm^2, 0.0 % PBO (test compound alone), 24 hours, read-out: 24 Hour % Mortality
  mortality at 0.02 µg/cm2: 10%
Ctenocephalides felis; 24 h, dose 0.02 µg/cm^2, 0.0015 % PBO in composition, 24 hours, read-out: 24 Hour % Mortality
  mortality at 0.02 µg/cm2: 70%
Ctenocephalides felis; 24 h, dose 0.2 µg/cm^2, 0.0 % PBO (test compound alone), 24 hours, read-out: 24 Hour % Mortality
  mortality at 0.2 µg/cm2: 20%
Ctenocephalides felis; 24 h, dose 0.2 µg/cm^2, 0.015 % PBO in composition, 24 hours, read-out: 24 Hour % Mortality
  mortality at 0.2 µg/cm2: 100%
Ctenocephalides felis; 24 h, dose 2.0 µg/cm^2, 0.0 % PBO (test compound alone), 24 hours, read-out: 24 Hour % Mortality
  mortality at 2 µg/cm2: 100%
Ctenocephalides felis; 24 h, dose 2.0 µg/cm^2, 0.15 % PBO in composition, 24 hours, read-out: 24 Hour % Mortality
  mortality at 2 µg/cm2: 100%
Ctenocephalides felis; 24 h, dose 6.2 µg/cm^2, 0.0 % PBO (test compound alone), 24 hours, read-out: 24 Hour % Mortality
  mortality at 6.2 µg/cm2: 100%
Ctenocephalides felis; 24 h, dose 6.2 µg/cm^2, 0.45 % PBO in composition, 24 hours, read-out: 24 Hour % Mortality
  mortality at 6.2 µg/cm2: 100%
Ctenocephalides felis; 24 h, dose 20.0 µg/cm^2, 0.0 % PBO (test compound alone), 24 hours, read-out: 24 Hour % Mortality
  mortality at 20 µg/cm2: 100%
Ctenocephalides felis; 24 h, dose 20.0 µg/cm^2, 1.50 % PBO in composition, 24 hours, read-out: 24 Hour % Mortality
  mortality at 20 µg/cm2: 100%
